Test results reported in patent EP3064205A1, “Therapeutic use of isomeric forms of 2-(4-chlorophenyl)quinolin-4-yl)(piperidin-2-yl)methanol” (Glionova AB, priority 2015, dated 2016).
Like-named read-outs stand apart in the source and are kept apart here.

Assays:
[1] = Pharmacokinetic evaluation in mice (plasma and brain); assay type: in vivo, male NMRI mice; settings: for Kp / half-life / Tmax / Cmax: male, NMRI, mouse; for Kp: brain/plasma, single oral administration of 20 mg/kg
Description: Compounds S1 and S2 were formulated at 0.4 mg/mL in 7.5% NMP, 10% Kolliphor in 0.9% NaCl (for i.v. administration) and at 2.0 mg/mL in 0.1% Tween 80, 0.5% Na-CMC in water (for p.o. administration).
The pharmacokinetic properties of S1 and S2 were determined in male NMRI mice (Charles River, Germany) following single intravenous (i.v., tail vein, 2 mg/kg) or per oral (p.o, gavage, 20 mg/kg). Light isoflurane anaesthesia was used at i.v. administration, no anaesthesia was used at p.o. administration. Blood samples were kept on ice after sampling and centrigued at +4 °C, 1800 x g for 5 minutes to prepare plasma. Blood and homogenized brain samples were taken from animals at the following nominal time points: 15, 30, and 60 minutes, and 2, 4, 6, 8, 24, 48, 72 and 144 hours after dosing (n=3 samples/time-point). Blood sampling (400-600 microliters) was performed by orbital plexus collection under isoflurane anaesthesia into EDTA plasma tubes (BD Microtainer K2EDTA). Bioanalytical quantification of S1 and S2 was analysed in plasma and brain samples by a UPLC-MS/MS. Pharmacokinetics were calculated by non-compartmental analysis (NCA) from composite (mean) profiles using Phoenix WinNonlin Professional (v 6.3). Nominal sampling times and dose levels have been used for the NCA calculations. All animals dosed with S1 and S2 were systemically exposed to the test compound. The plasma and brain concentrations were detectable and analysed until 144 h.
Brain sampling was performed after the end of blood sampling at the specified time points following euthanization and skull extraction. Brains were weighed and placed in test tubes and placed on wet ice. 4 mL PBS (pH 7.4) per 1 g of brain tissue was added to the test tube and brains were then homogenized using an Ultra-Turrax T25 homogenisator (Setting 2, 9500 rpm, 10s). The homogenates were frozen at -20° C immediately after homogenization.

Panc-1 cells = test: APH cell viability assay, 3D culture; assay type: cell-based, human
Description: The following well-characterized human pancreatic ductal adenocarcinoma cell lines (ATCC) were used: HPAF II, BxPC-3, MIA-PaCa2 and Panc-1. These cell lines were generated from patient-derived tumors and are widely used model system to study pancreatic cancer (HPAF II: Kim YW, et al. Pancreas 4: 353-362, 1989; BxPC-3: Tan MH, et al. Cancer Invest. 4: 15-23, 1986; MIA-PaCa2: Yunis AA, et al. Int. J. Cancer 19: 128-135, 1977; Pacn-1: Lieber M, et al. Int. J. Cancer 15: 741-747, 1975).
Panc-1, HPAF II, KPC pancreatic adenocarcinoma cell lines were trypsin-treated and counted using the Casy Cell Counter according to the manufacturer's recommendations (GmbH). Subsequently, they were seeded onto round bottom non-tissue culture treated 96 well-plates (Falcon, BD NJ, USA) at a concentration of 2500 cells/well in 100 µl DMEM-F12 or phenol red-free DMEM-F12 medium, containing 10% FCS and supplemented with 20% methyl cellulose stock solution. For preparation of methylcellulose stock solution, 6 grams of methylcellulose powder (M0512, Sigma-Aldrich) was autoclaved in a 500 ml flask containing a magnetic stirrer (the methylcellulose powder is resistant to this procedure). The autoclaved methylcellulose was dissolved in preheated 250 ml basal medium (60°C) for 20 min (using the magnetic stirrer). Thereafter, 250 ml medium (room temperature) containing double amount of FCS (20%) was added to a final volume of 500 ml and the whole solution mixed overnight at 4°C. The final stock solution was aliquoted and cleared by centrifugation (5000g, 2 h, room temperature). Only the clear highly viscous supernatant was used for the spheroid assay (about 90-95% of the stock solution). For spheroid generation, 20% of the stock solution and 80% culture medium corresponding to final 0.24% methylcellulose was used. Spheroids were grown under standard culture conditions (5% CO2, at 37°C).
For 2D culture, cells were seeded on flat bottom 96 well plates (Costar) at a concentration of 2500 cells/well in 100 µl phenol red-free RPMI-F12 medium containing 10% FCS. For 3D culture, cells were seeded according to the description for spheroid preparation in phenol-free medium. […] The viability rate was calculated as a percentage of the untreated cells. All data were expressed as the mean ± SD of at least 8 replicates. To confirm the reliability of the APH assay on 2D culture, cell viability was measured using CellTiter-Glo assay (Promega).
The APH assay, which measures the activity of acidic phosphatase in the cells, was optimized for 3D cultures as follows. […] Absorbance at 405nm was measured within 10 minutes using a FluoStar OPTIMA plate reader (BMG Labtech). Viability rate was calculated as per cent of CTR untreated cells. All data are expressed as the mean ± SD of at least 8 replicates.

- Brain AUC last ([1]; brain, i.v., 2 mg/kg): 52.7 µg·h/mL
- Brain Cmax ([1]; brain, i.v., 2 mg/kg): 1970 ng/mL
- Brain tlast ([1]; brain, i.v., 2 mg/kg): 144 h
- Brain AUC last ([1]; brain, p.o., 20 mg/kg): 400 µg·h/mL
- Brain Cmax ([1]; brain, p.o., 20 mg/kg): 4840 ng/mL
- Brain tlast ([1]; brain, p.o., 20 mg/kg): 144 h
- Kp ([1]; po, 20 mg/kg, read-out: exposure ratio AUC(brain/plasma)): 1.6
- Kp ([1]; po, 20 mg/kg, read-out: exposure ratio Cmax(brain/plasma)): 2.2
- half-life ([1]; iv, brain, i.v., 2 mg/kg, read-out: Brain T1/2 (converted)): 67 h
- Tmax ([1]; iv, brain, i.v., 2 mg/kg, read-out: Brain tmax): 0.25 h
- Cmax ([1]; iv, plasma, 2 mg/kg): 775 ng/mL
- half-life ([1]; iv, plasma, i.v., 2 mg/kg, read-out: Plasma T1/2 (converted)): 84 h
- Tmax ([1]; iv, plasma, i.v., 2 mg/kg, read-out: Plasma tmax): 4 h
- Tmax ([1]; po, brain, p.o., 20 mg/kg, read-out: Brain tmax): 8 h
- Cmax ([1]; po, plasma, 20 mg/kg): 2210 ng/mL
- Tmax ([1]; po, plasma, p.o., 20 mg/kg, read-out: Plasma tmax): 4 h
- Plasma AUC last ([1]; plasma, i.v., 2 mg/kg): 62 µg·h/mL
- Plasma tlast ([1]; plasma, i.v., 2 mg/kg): 144 h
- Plasma AUC last ([1]; plasma, p.o., 20 mg/kg): 246 µg·h/mL
- Plasma tlast ([1]; plasma, p.o., 20 mg/kg): 144 h
Structure (SMILES): O[C@H](c1cc(-c2ccc(Cl)cc2)nc2ccccc12)[C@@H]1CCCCN1 [S1, (R)-(2-(4-chlorophenyl)quinolin-4-yl)((S)-piperidin-2-yl)methanol]
- vacuole formation (Panc-1 cells; Panc-1, 30 µM (data not shown)): vacuoles were formed
- effect on cell viability (Panc-1 cells; Panc-1, 3D culture, 30 µM, 24h): did not affect cells
- decrease in cell viability (Panc-1 cells; Panc-1, 3D culture, 30 µM, 48h): 55%
- decrease in cell viability (Panc-1 cells; Panc-1, 3D culture, 30 µM, 72h): 64%
